According to US7060822B1, “2-pyrazolin-5-ones” (Abbott GmbH & Co. KG, priority 1999, dated 2006):

| Compound | melting point |
| --- | --- |
| CC(=O)c1c(C)[nH]c(C=C2C(=O)NN=C2OC(C)C)c1C [Example 87, 4-[(4-Acetyl-3,5-dimethylpyrrol-2-yl)methylene]-3-isopropoxy-2-pyrazolin-5-one] | 209 to 210 °C |
| Cc1cc(C)c(C=C2C(=O)NN=C2OC(C)C)[nH]1 [Example 30, 4-[(3,5-Dimethylpyrrol-2-yl)methylene]-3-isopropoxy-2-pyrazolin-5-one] | 176 to 177 °C |
| Cc1[nH]c(C=C2C(=O)NN=C2c2nc3ccccc3s2)c(C)c1CN1CCOCC1 [Example 134, 3-(Benzothiazol-2-yl)-4-[(3,5-dimethyl-4-morpholinomethylpyrrol-2-yl)methylene]-2-pyrazolin-5-one] | 285 °C (dec.) |
| O=C1NN=C(c2ccccc2)C1=Cc1c[nH]c2ncccc12 [Example 347, 4-[(7-Azaindol-3-yl)methylene]-3-phenyl-2-pyrazolin-5-one] | 280 to 282 °C |
| CC(C)C1=NNC(=O)C1=Cc1c[nH]c2ccccc12 [Example 252, 3-Isopropyl-4-[(indol-3-yl)methylene]-2-pyrazolin-5-one] | 264 to 266 °C |
| O=C1NN=C(C2CCCCC2)C1=Cc1ccc[nH]1 [Example 107, 3-Cyclohexyl-4-[(pyrrol-2-yl)methylene]-2-pyrazolin-5-one] | 176 to 178 °C |
| CC(C)OC1=NNC(=O)C1=Cc1cccn1CCCCO [Example 38, 4-{[1-(4-Hydroxybutyl)pyrrol-2-yl]methylene}-3-isopropoxy-2-pyrazolin-5-one] | 138 to 140 °C |
| Cc1[nH]c(C=C2C(=O)NN=C2C2CC2)c(C(C)C)c1CN(C)C [Example 200, 3-Cyclopropyl-4-[(dimethylaminomethyl-3-isopropyl-5-methylpyrrol-2-yl)methylene]-2-pyrazolin-5-one] | 190 to 192 °C |
| Cc1cc(C)c(C=C2C(=O)NN=C2c2nc3ccccc3s2)[nH]1 [Example 133, 3-(Benzothiazol-2-yl)-4-[(3,5-dimethylpyrrol-2-yl)methylene]-2-pyrazolin-5-one] | 295 to 297 °C |
| Cc1[nH]c(C=C2C(=O)NN=C2c2cnccn2)c(C)c1C(=O)OCCN(C)C [Example 120, 4-{[3,5-Dimethyl-4(2-dimethylaminoethyloxycarbonyl)pyrrol-2-yl]methylene}-3-pyrazinyl-2-pyrazolin-5-one] | 223 to 225 °C |
| O=C1NN=C(c2c[nH]c3ccccc23)C1=Cc1ccc[nH]1 [Example 20, 3-(Indol-3-yl)-4-[(pyrrol-2-yl)methylene]-2-pyrazolin-5-one] | 300 to 305 °C |
| COc1ccc(OCC2=NNC(=O)C2=Cc2c[nH]c3ncccc23)cc1 [Example 335, 4-[(7-Azaindol-3-yl)methylene]-3-(4-methoxyphenyloxymethyl)-2-pyrazolin-5-one] | 300 to 302 °C |
| Cn1cc(C=C2C(=O)NN=C2C2CCOC2)c2ccccc21 (centres unmarked) [Example 291, 4-[(1-Methylindol-3-yl)methylene]-3-(tetrahydrofuran-3-yl)-2-pyrazolin-5-one] | 208 to 210 °C |
| O=C1NN=C(c2ccccc2)C1=Cc1cc2ccccc2[nH]1 [Example 321, 4-[(Indol-2-yl)methylene]-3-phenyl-2-pyrazolin-5-one] | 210 to 211 °C |
| O=C1NN=C(C2CC2)C1=Cc1ccc(CN2CCOCC2)[nH]1 [Example 109, 3-Cyclopropyl-4-[(5-morpholinomethylpyrrol-2-yl)methylene]-2-pyrazolin-5-one] | 184 to 186 °C |
| Cn1cc(C=C2C(=O)NN=C2CCc2ccc(O)cc2)c2ccccc21 [Example 251, 3-(4-Hydroxyphenylethyl)-4-[(1-methylindol-3-yl)methylene]-2-pyrazolin-5-one] | 255 to 257 °C |
| Cc1[nH]c(C=C2C(=O)NN=C2c2ccco2)c(C)c1CN(C)C [Example 142, 4-[(3,5-Dimethyl-4-dimethylaminomethylpyrrol-2-yl)methylene]-3-(2-furyl)-2-pyrazolin-5-one] | 209 to 211 °C |
| COc1ccc2nc(C3=NNC(=O)C3=Cc3c[nH]c4ccccc34)sc2c1 [Example 272, 4-[(Indol-3-yl)methylene]-3-(6-methoxybenzothiazol-2-yl)-2-pyrazolin-5-one] | > 300 °C |
| O=C1NN=C(OC2CCCC2)C1=Cc1ccc[nH]1 [Example 39, 3-Cyclopentyloxy-4-[(pyrrol-2-yl)methylene]-2-pyrazolin-5-one] | 201 to 203 °C |

Second part, the molecule after the results:

| melting point | Compound |
| --- | --- |
| 273 to 275 °C | Cc1[nH]c(C=C2C(=O)NN=C2c2cnccn2)c(C)c1CCCO [Example 187, 4-{[3,5-Dimethyl-4-(3-hydroxypropyl)pyrrol-2-yl]methylene}-3-pyrazinyl-2-pyrazolin-5-one] |
| 211 to 213 °C | CCOC1=NNC(=O)C1=Cc1ccc[nH]1 [Example 31, 3-Ethoxy-4-[(pyrrol-2-yl)methylene]-2-pyrazolin-5-one] |
| 288 to 291 °C | Cc1ccc(OCC2=NNC(=O)C2=Cc2c[nH]c3ccccc23)cc1 [Example 216, 4-[(Indol-3-yl)methylene]-3-(4-methylphenyloxymethyl)-2-pyrazolin-5-one] |
| 185 to 187 °C | CCOC1=NNC(=O)C1=Cc1[nH]c2ccccc2c1CN(C)C [Example 332, 4-[(3-Dimethylaminomethylindol-2-yl)methylene]-3-ethoxy-2-pyrazolin-5-one] |
| 195 to 197 °C | Cc1cc(C=C2C(=O)NN=C2OC(C)C)[nH]c1C [Example 35, 4-[(4,5-Dimethylpyrrol-2-yl)methylene]-3-isopropoxy-2-pyrazolin-5-one] |
| > 300 °C | CC(C)OC1=NNC(=O)C1=Cc1ccc(O)c2ncccc12 [Example 370, 4-[(8-Hydroxyquinolin-5-yl)methylene]-3-isopropoxy-2-pyrazolin-5-one] |
| 263 to 265 °C | Cn1cc(C=C2C(=O)NN=C2c2cnccn2)c2ccccc21 [Example 289, 4-[(1-Methylindol-3-yl)methylene]-3-pyrazinyl-2-pyrazolin-5-one] |
| 161 to 163 °C | CC(C)OC1=NNC(=O)C1=Cc1cn(C(C)C)c2ccccc12 [Example 250, 3-Isopropoxy-4-[(1-isopropylindol-3-yl)methylene]-2-pyrazolin-5-one] |
| 220 to 224 °C | Cc1[nH]c(C=C2C(=O)NN=C2c2cccnc2)c(C)c1CN(C)C [Example 144, 4-[(3,5-Dimethyl-4-dimethylaminomethylpyrrol-2-yl)methylene]-3-(3-pyridyl)-2-pyrazolin-5-one] |
| > 300 °C | O=C1NN=C(C2CCC2)C1=Cc1c[nH]c2ccccc12 [Example 259, 3-Cyclobutyl-4-[(indol-3-yl)methylene]-2-pyrazolin-5-one] |
| 215 to 217 °C | Cc1[nH]c(C=C2C(=O)NN=C2c2ccno2)c(C)c1CN1CCCCC1 [Example 168, 4-[(3,5-Dimethyl-4-piperidinomethylpyrrol-2-yl)methylene]-3-(5-isoxazolyl)-2-pyrazolin-5-one] |
| 267 to 269 °C | COC(=O)CCC1=NNC(=O)C1=Cc1c[nH]c2ccccc12 [Example 284, 4-[(Indol-3-yl)methylene]-3-(2-methoxycarbonylethyl)-2-pyrazolin-5-one] |
| 255 to 257 °C | Cc1[nH]c(C=C2C(=O)NN=C2c2cnccn2)c(C)c1CN1CCC(O)CC1 [Example 178, 4-{[3,5-Dimethyl-4-(4-hydroxypiperidinomethyl)pyrrol-2-yl]methylene}-3-pyrazinyl-2-pyrazolin-5-one] |
| 188 to 190 °C | O=C1NN=C(C2CC2)C1=Cc1cccn1-c1cc(Cl)cc(Cl)c1 [Example 59, 3-Cyclopropyl-4-[[1-(3,5-dichlorophenyl)pyrrol-2-yl)methylene]-2-pyrazolin-5-one] |
| 258 to 260 °C | CC(C)OC1=NNC(=O)C1=Cc1c[nH]c2ncccc12 [Example 336, 4-[(7-Azaindol-3-yl)methylene]-3-isopropoxy-2-pyrazolin-5-one] |
| 192 to 194 °C | CCOC(=O)c1c[nH]c(C=C2C(=O)NN=C2C2CC2)c1 [Example 130, 3-Cyclopropyl-4-[(4-ethoxycarbonylpyrrol-2-yl)methylene]-2-pyrazolin-5-one] |
| 254 to 255 °C | CC(C)OC1=NNC(=O)C1=Cc1cc2ccccc2n1C [Example 315, 3-Isopropoxy-4-[(1-methylindol-2-yl)methylene]-2-pyrazolin-5-one] |
| 134 to 136 °C | O=C1NN=C(C2CC2)C1=Cc1cccn1CCCCO [Example 81, 3-Cyclopropyl-4-{[1-(4-hydroxybutyl)pyrrol-2-yl]methylene]-2-pyrazolin-5-one] |
| 306 to 308 °C | Cc1[nH]c(C=C2C(=O)NN=C2c2cnccn2)c(C)c1CCO [Example 181, 4-{[3,5-Dimethyl-4-(2-hydroxyethyl)pyrrol-2-yl]methylene}-3-pyrazinyl-2-pyrazolin-5-one] |
| 312 °C (dec.) | Cc1[nH]c(C=C2C(=O)NN=C2C2CC2)c(C)c1C(=O)O [Example 95, 4-[(4-Carboxy-3,5-dimethylpyrrol-2-yl)methylene]-3-cyclopropyl-2-pyrazolin-5-one] |
| 169 to 171 °C | COc1cccc(CC2=NNC(=O)C2=Cc2ccc[nH]2)c1 [Example 21, 3-(3-Methoxybenzyl)-4-[(pyrrol-2-yl)methylene]-2-pyrazolin-5-one] |
| 161 to 163 °C | Cc1[nH]c(C=C2C(=O)NN=C2c2ccno2)c(C)c1CN(C)C [Example 169, 4-[(3,5-Dimethyl-4-dimethylaminomethylpyrrol-2-yl)methylene]-3-(5-isoxazolyl)-2-pyrazolin-5-one] |
| 305 to 307 °C | O=C(CC1=NNC(=O)C1=Cc1c[nH]c2ccccc12)Nc1ccc(Cl)cc1 [Example 253, 3-(4-Chlorophenylaminocarbonylmethyl)-4-[(indol-3-yl)methylene]-2-pyrazolin-5-one] |
| 274 to 277 °C | Cc1[nH]c(C=C2C(=O)NN=C2c2cnccn2)c(C)c1CN1CCOCC1 [Example 128, 4-[(3,5-dimethyl-4-morpholinomethylpyrrol-2-yl)methylene]-3-pyrazinyl-2-pyrazolin-5-one] |
| 215 to 217 °C | Cc1c[nH]c(C=C2C(=O)NN=C2OC(C)C)c1 [Example 41, 3-Isopropoxy-4-[(4-methylpyrrol-2-yl)methylene]-2-pyrazolin-5-one] |
